pIC50: −log10 of the molar value.
Legend:
SERT = target: T1, SERT (Homo sapiens, UniProt P31645); experiment: SERT inhibition assay (Neurotransmitter Transportation Fluorescence assay, stable 5HTT cells); assay type: cell-based; settings: for IC50 ratio to (−) mesembrine: SERT assay IC50 relative to (−) mesembrine; for pIC50: stable 5HTT cells, 30 minutes at 37° C., fluorescence uptake kit, read-out: SERT Assay Potency Range
T1 construct: expressed in transfected cells
Experimental: SERT inhibition can be measured using a Neruotransmitter Transportation Fluorescence assay. Briefly, stable 5HTT cells were prepared in a 384 microwell plate. Compounds were prepared by in assay buffer (20 mM HEPES, 0.1% BSA). The compounds were added to the plated cells and incubated for 30 minutes at 37° C. 25 μL of dye solution (Molecular Devices Neurotransmitter Transporter Uptake Assay Kit) is added per well and incubated for 30 minutes at 37° C. The plates are then read on a plate reader.

[1] = pharmacokinetics described for (−) mesembrine; species not given; cited from earlier work

T1 sequence (P31645 whole entry, species assumed): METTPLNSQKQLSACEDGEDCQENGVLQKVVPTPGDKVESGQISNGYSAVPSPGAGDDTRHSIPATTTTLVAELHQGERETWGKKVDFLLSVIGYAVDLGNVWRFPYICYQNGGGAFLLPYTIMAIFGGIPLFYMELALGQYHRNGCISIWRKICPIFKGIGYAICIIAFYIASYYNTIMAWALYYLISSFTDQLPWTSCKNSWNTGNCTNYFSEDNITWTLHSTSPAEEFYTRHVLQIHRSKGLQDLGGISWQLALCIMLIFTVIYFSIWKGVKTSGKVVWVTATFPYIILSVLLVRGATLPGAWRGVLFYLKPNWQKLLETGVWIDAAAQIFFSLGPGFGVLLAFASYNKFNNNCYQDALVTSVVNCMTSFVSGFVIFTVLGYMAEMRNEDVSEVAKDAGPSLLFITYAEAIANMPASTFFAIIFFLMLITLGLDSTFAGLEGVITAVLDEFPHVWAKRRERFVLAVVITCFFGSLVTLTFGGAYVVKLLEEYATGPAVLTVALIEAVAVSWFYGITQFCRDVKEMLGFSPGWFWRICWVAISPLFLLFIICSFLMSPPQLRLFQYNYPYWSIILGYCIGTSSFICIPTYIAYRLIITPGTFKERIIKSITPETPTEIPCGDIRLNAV

Compound | IC50 ratio to (−) mesembrine (SERT) | pIC50 (SERT) | half-life in plasma [1]
CN1CC[C@]2(c3ccc4c(c3)OC(F)(F)O4)CCC(=O)C[C@H]12 (single isomer, unassigned) [Compound 232] | <5 | > 7.30 | –
CN1CC[C@@]2(c3ccc4c(c3)OC(F)(F)O4)CCC(=O)C[C@@H]12 (single isomer, unassigned) [Compound 233] | ≥100 | 5.82 to 6.30 | –
COc1ccc([C@@]23CCC(=O)C[C@@H]2N(C)CC3)cc1OC [Mesembrine] | – | – | less than 2 hours

From patent publication US20260234131A1, “THERAPEUTIC ALKALOID COMPOUNDS” (Sensorium Therapeutics, Inc., priority 2023, published 2026)
